Laboratory results reported in patent US20250313544A1, “INHIBITORS OF GLUTATHIONE S-TRANSFERASE ZETA 1 (GSTZ1) AND METHODS OF USE” (H. LEE MOFFITT CANCER CENTER AND RESEARCH INSTITUTE, INC., priority 2022, published 2025).

Tests used:
[1] = tested on: HCC366 cells harboring mutated DDR2; assay: Cell viability assay (CellTiter-Glo) in HCC366 cells; type: cell-based, human; conditions: probe combined with dasatinib in HCC366 cells, dose of 10 μM (FIG. 9F)
Procedure: Cells were seeded in Corning 384-well black walled/clear bottom microplates with a density of 1,000 cells/well and treated with indicated drugs and concentrations following cell attachment for 24 h. After 72 h or 96 h, as indicated, cell viability was evaluated with CellTiter-Glo (Promega, Madison, WI) according to manufacturer's recommendations. An M5 Spectramax plate reader (Molecular devices) was used to read the plates with 500 ms integration. Data was processed and analyzed using Excel and GraphPad Prism 9.0.

[2] = biological target: T1, GSTZ1 (Homo sapiens, UniProt O43708); assay: GSTZ1 pulldown and competition after photocrosslinking in live H1792 cells (biotin enrichment, immunoblotting); type: binding; design: endogenous in cells; host or cells: H1792 cells; conditions: UV crosslinking
T1 sequence (O43708 1-216): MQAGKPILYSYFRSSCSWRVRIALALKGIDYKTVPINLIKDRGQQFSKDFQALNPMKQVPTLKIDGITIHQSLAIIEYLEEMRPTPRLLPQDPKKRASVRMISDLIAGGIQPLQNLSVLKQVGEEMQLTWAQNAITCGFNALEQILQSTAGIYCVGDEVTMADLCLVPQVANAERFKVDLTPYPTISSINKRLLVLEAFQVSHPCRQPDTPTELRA
Procedure: Cells were harvested and washed with PBS and lysed in RIPA buffer (150 mM NaCl, 50 mM Tris-HCl, pH 7.4, 5 mM EDTA, 1% NP40, 0.1% SDS) containing complete protease inhibitor cocktail (Roche, 11873580001) and phosphatase inhibitor cocktail 2 (Sigma, P5726) for 30 min on ice. The Coomassie Plus (Bradford) protein assay (23236, ThermoFisher, MA) was conducted for measuring concentrations of resulting supernatants. Samples were prepared by adding 4× Laemmli sample buffer and heat-denaturing for 5 minutes. All samples or total cell lysates were resolved by SDS-PAGE and then transferred onto PVDF membranes. 5% non-fat milk was utilized for blocking of non-specific binding. Blots were incubated with primary antibodies overnight at 4° C. For immunoblotting, primary antibodies were purchased from Cell Signaling: PARP1 (#9542), cleaved caspase-3 (#9661), Phospho-tyrosine Mouse mAb (P-Tyr-100, #9411), FGFR1 (#9740). GAPDH (#60004-1-Ig) and GSTZ1 (#14889-1-AP) were purchased from Proteintech. […] Densitometry was analyzed using Image Studio Lite Ver 5.2.
Cells were grown in 10 cm dishes to ˜90% confluence at the time of treatment. […] Protein concentrations were determined using Bradford assays. […]

Q: With `C#CCCC1(CCC(=O)N2CCC(COc3nc4ccccc4nc3C)CC2)N=N1` [Probe 17, 3-(3-(but-3-yn-1-yl)-3H-diazirin-3-yl)-1-(4-(((3-methylquinoxalin-2-yl)oxy)methyl)piperidin-1-yl)propan-1-one] as the compound, how does the “sensitization of cells towards dasatinib” value [1] read?
A: Its value is “significantly enhanced the sensitivity”.

Q: And the “GSTZ1 enrichment by probe (affinity enrichment, immunoblotting with GSTZ1 antibody)” value [2]?
A: Its value is “specifically enriched”.
